{"source": "patent US8236762B2", "about": "“Peptide-cytotoxic conjugates” (IPSEN Pharma S.A.S., priority 2006, dated 2012)", "key": {"NCI-H69 cells": {"test_system": "NCI-H69 cells", "test": "In vivo growth assay, NCI-H69 small cell lung carcinoma xenograft in nude mice", "design": "species or system human", "conditions": "female athymic nude mice, qwk×3, i.v.", "description": "The mice were housed in microisolators on a 12-hour light cycle at 22° C. (72° F.) and 40%-60% humidity.\nMice were implanted subcutaneously in the flank with 5×10^6 cells of NCI-H69 cells along with an equal volume of Matrigel® Matrix (BD Biosciences, San Jose, Calif., U.S.A.), a solubilized basement membrane preparation extracted from EHS mouse sarcoma, a tumor rich in ECM proteins. The tumors were monitored initially twice weekly and then daily as the neoplasms reached the desired size of approximately 100 mm^3, (100 mg). When the small cell lung carcinomas attained the desired size in calculated tumor weight, the animals were pair-matched on Day 1 into various treatment groups. The estimated tumor weight was calculated using the formula:\n[formula] where w=width and l=length, both measured in mm, of a small cell lung carcinoma.\nAnimals with tumors were then subject to either no treatment at all, treatment with a vehicle control (either saline or water), treatment with a camptothecin only control (7.5 mg/kg) or treatment with a compound according to Formula I or II as discussed above. All treatments were administered intravenously."}, "[1]": {"test": "Half-life determination in mouse plasma (LC-MS)", "format": "in vitro ADME", "conditions": "37° C.", "how_it_was_run": "(§1)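 Compound samples of about 50–500 μg/ml were added to 450 μl human or mouse plasma and incubated at 37 °C. Aliquots taken from 0 to 48 h were precipitated with acetonitrile. Supernatants were analysed by LC-MS (positive-mode ESI, C8 column, acetic acid water/acetonitrile gradient).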"}, "hSSTR-4": {"target": "T1, hSSTR-4 (Homo sapiens, UniProt P31391)", "T1 construct": "expressed in transfected cells; host or cells: CHO-K1", "T1 sequence (P31391 whole entry)": "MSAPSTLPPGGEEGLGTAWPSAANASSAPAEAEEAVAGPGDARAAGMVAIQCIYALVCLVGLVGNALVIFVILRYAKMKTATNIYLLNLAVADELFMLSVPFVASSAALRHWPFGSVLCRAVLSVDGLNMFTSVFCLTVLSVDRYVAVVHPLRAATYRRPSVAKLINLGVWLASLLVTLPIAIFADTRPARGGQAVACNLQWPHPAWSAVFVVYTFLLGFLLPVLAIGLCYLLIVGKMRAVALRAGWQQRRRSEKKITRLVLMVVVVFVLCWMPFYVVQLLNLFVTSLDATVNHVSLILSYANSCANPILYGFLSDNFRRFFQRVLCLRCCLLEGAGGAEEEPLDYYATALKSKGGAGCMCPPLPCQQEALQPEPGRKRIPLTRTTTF", "test": "Somatostatin receptor radioligand binding, hSSTR-4 (CHO-K1 membranes)", "conditions": "read-out: Ki hSSTR4 ± (SEM)"}, "hSSTR-3": {"target": "T2, hSSTR-3 (Homo sapiens, UniProt P32745)", "T2 construct": "expressed in transfected cells; host or cells: CHO-K1", "T2 sequence (P32745 whole entry)": "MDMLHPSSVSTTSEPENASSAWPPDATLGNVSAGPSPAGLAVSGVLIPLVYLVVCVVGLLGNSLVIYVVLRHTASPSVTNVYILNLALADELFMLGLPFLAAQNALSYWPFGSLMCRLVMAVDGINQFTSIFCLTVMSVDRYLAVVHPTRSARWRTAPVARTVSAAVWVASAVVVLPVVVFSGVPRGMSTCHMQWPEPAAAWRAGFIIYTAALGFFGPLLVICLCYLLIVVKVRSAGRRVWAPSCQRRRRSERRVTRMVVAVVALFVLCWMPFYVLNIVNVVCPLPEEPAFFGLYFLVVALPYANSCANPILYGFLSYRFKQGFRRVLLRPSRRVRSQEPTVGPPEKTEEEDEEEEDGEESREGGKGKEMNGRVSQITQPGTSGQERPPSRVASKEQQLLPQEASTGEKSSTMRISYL", "test": "Somatostatin receptor radioligand binding, hSSTR-3 (CHO-K1 membranes)", "conditions": "read-out: Ki hSSTR3 ± (SEM)", "description": "(§3) Membranes for in vitro receptor binding assays were obtained by homogenizing (Polytron setting 6, 15 sec) CHO-K1 cells expressing human somatostatin receptor subtypes hSSTR-1, hSSTR-2, hSSTR-3, hSSTR-4 or hSSTR-5 in ice-cold 50 mM Tris-HCl. The homogenized cells were centrifuged twice at 39,000 g for 10 minutes with an intermediate resuspension in fresh buffer. The final pellets were resuspended in 10 mM Tris-HCl to prepare the cell membrane homogenate for use in the binding assay.\n(§4) For the hSSTR-1, hSSTR-3, and hSSTR-4 assays, aliquots of the membrane preparations were incubated for 90 minutes at 25° C. with 0.05 nM [^125I-Tyr11]SRIF-14 in 50 mM HEPES (pH 7.4) buffer containing 0.2% BSA and 5 mM MgCl2. The final assay volume was 0.3 ml. For the hSSTR-2 and hSSTR-5 assays, [^125I]-[4-(2-hydroxyethyl)]-1-piperazinylacetyl-D-Phe-c(Cys-Tyr-D-Trp-Lys-Abu-Cys)-Thr-NH2 (0.05 nM) and [^125I]-D-Phe-c(Cys-Tyr-D-Trp-Lys-Val-Cys)-Thr-NH2 were employed as the radioligands, respectively.\n(§5) The cell membrane homogenate was incubated with the radioligands for 90 minutes at 25° C. The incubations were terminated by rapid filtration through GF/C filters pre-soaked in 0.3% polyethylenimine using a Brandel® filtration manifold (Gaithersberg, Md., U.S.A.). Each tube and filter was washed three times with 5-ml aliquots of ice-cold buffer. Specific binding was defined as the total radioligand bound minus that bound in the presence of 1000 nM SRIF-14 (for hSSTR-1, hSSTR-3, hSSTR-4 or hSSTR-5), or 1000 nM DPhe-c(Cys-Tyr-D-Trp-Lys-Abu-Cys)-Thr-NH2 for hSSTR-2."}, "hSSTR-5": {"target": "T3, hSSTR-5 (Homo sapiens, UniProt P35346)", "T3 construct": "expressed in transfected cells; host or cells: CHO-K1", "T3 sequence (P35346 whole entry)": "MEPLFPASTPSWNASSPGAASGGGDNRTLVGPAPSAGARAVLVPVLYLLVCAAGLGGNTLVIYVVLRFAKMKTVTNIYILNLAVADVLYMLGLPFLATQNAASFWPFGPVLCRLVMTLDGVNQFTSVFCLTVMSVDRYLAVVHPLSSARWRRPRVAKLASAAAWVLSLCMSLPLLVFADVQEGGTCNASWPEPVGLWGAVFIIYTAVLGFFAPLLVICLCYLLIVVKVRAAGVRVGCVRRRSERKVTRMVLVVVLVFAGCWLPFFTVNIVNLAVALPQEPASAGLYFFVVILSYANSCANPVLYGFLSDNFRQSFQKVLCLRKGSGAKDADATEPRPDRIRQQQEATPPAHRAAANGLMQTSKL", "test": "Somatostatin receptor radioligand binding, hSSTR-5 (CHO-K1 membranes)", "conditions": "read-out: Ki hSSTR5 ± (SEM)", "description": "as §3, §4, §5"}, "hSSTR-2": {"target": "T4, hSSTR-2 (Homo sapiens, UniProt P30874)", "T4 construct": "expressed in transfected cells; host or cells: CHO-K1", "T4 sequence (P30874 whole entry)": "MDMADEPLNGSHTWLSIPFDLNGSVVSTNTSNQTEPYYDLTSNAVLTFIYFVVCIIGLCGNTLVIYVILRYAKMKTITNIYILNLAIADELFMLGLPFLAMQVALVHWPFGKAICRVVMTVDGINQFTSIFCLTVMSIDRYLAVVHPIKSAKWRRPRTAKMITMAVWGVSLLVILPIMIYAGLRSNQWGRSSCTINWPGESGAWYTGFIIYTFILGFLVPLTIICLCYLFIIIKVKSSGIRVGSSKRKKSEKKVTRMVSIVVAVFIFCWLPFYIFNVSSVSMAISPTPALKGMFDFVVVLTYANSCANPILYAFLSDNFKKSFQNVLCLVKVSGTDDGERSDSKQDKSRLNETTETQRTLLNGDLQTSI", "test": "Somatostatin receptor radioligand binding, hSSTR-2 (CHO-K1 membranes)", "conditions": "read-out: Ki hSSTR2 ± (SEM)", "description": "as §3, §4, §5"}, "hSSTR-1": {"target": "T5, hSSTR-1 (Homo sapiens, UniProt P30872)", "T5 construct": "expressed in transfected cells; host or cells: CHO-K1", "T5 sequence (P30872 whole entry)": "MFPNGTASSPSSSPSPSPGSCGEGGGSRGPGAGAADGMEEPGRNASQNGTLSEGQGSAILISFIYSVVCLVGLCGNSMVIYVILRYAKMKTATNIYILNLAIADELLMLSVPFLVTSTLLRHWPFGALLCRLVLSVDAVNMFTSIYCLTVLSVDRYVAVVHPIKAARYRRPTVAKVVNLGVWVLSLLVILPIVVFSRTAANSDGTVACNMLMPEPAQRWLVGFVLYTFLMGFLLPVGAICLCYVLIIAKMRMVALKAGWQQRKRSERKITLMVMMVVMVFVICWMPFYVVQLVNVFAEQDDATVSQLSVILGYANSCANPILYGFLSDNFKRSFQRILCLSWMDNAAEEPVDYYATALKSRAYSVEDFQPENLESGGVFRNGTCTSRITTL", "test": "Somatostatin receptor radioligand binding, hSSTR-1 (CHO-K1 membranes)", "conditions": "read-out: Ki hSSTR1 ± (SEM)"}, "[2]": {"test": "Half-life determination in human plasma (LC-MS)", "format": "in vitro ADME", "conditions": "37° C.", "how_it_was_run": "as §1"}, "NCI-H345 cells": {"test_system": "NCI-H345 cells", "test": "In vivo growth assay, NCI-H345 small cell lung carcinoma xenograft in nude mice", "design": "species or system human", "conditions": "female athymic nude mice, qwk×3, i.v.; 165.6, 138, 55.2 mg/kg", "source_text": "FIG. 3: Effects of Example 5C against small cell lung carcinoma tumor model H345 SCLC in female athymic nude mice.\n(§2) In other experiments, animals were implanted with human xenografts derived from NCI-H345 cells (human small cell lung carcinoma; […]), A549 cells (non-small cell lung carcinoma), MDA-MB-231 cells (breast cancer) and K562 cells (human chronic myelogenous leukemia; […]) and then subjected to treatment with the compounds of Formula I or II and the appropriate controls as described herein."}, "K562 cells": {"test_system": "K562 cells", "test": "In vivo growth assay, K562 human chronic myelogenous leukemia xenograft in nude mice", "conditions": "female athymic nude mice, qwk×3, i.v.; 165.6, 138, 55.2 mg/kg", "source_text": "FIG. 2: Effects of Example 5C against tumor model human chronic myelogenous leukemia K562 in female athymic nude mice.\nas §2"}}, "note": "pKi: −log10 of the molar value. Entries after “also recorded” stand apart in the source; their conditions may differ. Numbered stars: 1 amine (or outer) side, 2 acyl side, 3 side chain; on linkers, the order of the positions; unused ones are H or OH. Bridge positions count the residues as written; N and C are the ends. Square brackets hold non-standard residues; d marks the D form. Peptide text beside a SMILES is read from it. * marks the point of attachment. X1 = CC[C@@]1(O*)C(=O)OCc2c1cc1n(c2=O)Cc2cc3ccccc3nc2-1; Glutaryl = O=C(CCCC(=O)[*:2])[*:1]; AEEA = NCCOCCOCC(=O)O"}
{"compound": "Camptothecin-rvD-Asp-Suc-(Doc)4-Aepa-D-Phe-c(Cys-Tyr-D-Trp-Lys-Abu-Cys)-Thr-NH2 Camptothecin-rvAsp-Suc-(Doc)4-Aepa-D-Phe-c(Cys-Tyr-D-Trp-Lys-Abu-Cys)-Thr-NH2 [Example 5B]", "values": [{"measurement": "tumor growth in vivo, NCI-H69 xenograft (FIG. 1)", "setting": "NCI-H69 cells", "value": "Suppression of tumor growth"}]}
{"compound": "CC[C@@]1(OC(=O)CNC(=O)CCCC(=O)NCCOCCOCC(=O)NCCOCCOCC(=O)NCCOCCOCC(=O)NCCOCCOCC(=O)N[C@@H](CCCCN)C(=O)N[C@H](Cc2ccc(O)cc2)C(=O)N[C@H](Cc2ccc(O)cc2)C(=O)N[C@H]2CSSC[C@@H](C(N)=O)NC(=O)[C@H]([C@@H](C)O)NC(=O)[C@H](CCCCN)NC(=O)[C@@H](Cc3c[nH]c4ccccc34)NC(=O)[C@H](Cc3ccccc3)NC(=O)[C@H](Cc3ccccc3)NC2=O)C(=O)OCc2c1cc1n(c2=O)Cc2cc3ccccc3nc2-1", "note": "[Example 4, Camptothecin-rvGly-Glut-(Doc)4-Lys-D-Tyr-D-Tyr-c(Cys-Phe-Phe-D-Trp-Lys-Thr-Cys)-NH2] ({X1-Gly-Glutaryl-AEEA-AEEA-AEEA-AEEA}-K[dY][dY]CFF[dW]KTC-NH2; disulfide 4-10)", "values": [{"measurement": "half-life", "setting": "[1]", "value": 4.4, "unit": "h"}, {"measurement": "pKi", "setting": "hSSTR-4", "value": "≤ 6.00"}, {"measurement": "pKi", "setting": "hSSTR-3", "value": "≤ 6.00"}, {"measurement": "pKi", "setting": "hSSTR-5", "value": 6.32}, {"measurement": "pKi", "setting": "hSSTR-2", "value": 8.03}, {"measurement": "pKi", "setting": "hSSTR-1", "value": "≤ 6.00"}, {"measurement": "half-life", "setting": "[2]", "value": 3.2, "unit": "h"}]}
{"compound": "Camptothecin-rvD-Asp-Suc-(Doc)4-Aepa-D-Phe-c(Cys-Tyr-D-Trp-Lys-Abu-Cys)-Thr-NH2 [Example 5C]", "values": [{"measurement": "tumor growth in vivo, H345 small cell lung carcinoma xenograft", "setting": "NCI-H345 cells", "value": "Suppression of tumor growth; also recorded: suppressed growth"}, {"measurement": "tumor growth in vivo, NCI-H69 xenograft (FIG. 1)", "setting": "NCI-H69 cells", "value": "Suppression of tumor growth"}, {"measurement": "tumor growth in vivo, K562 human chronic myelogenous leukemia xenograft", "setting": "K562 cells", "value": "Suppression of tumor growth; also recorded: suppressed growth"}]}
